Results reported in publication PMC6704710, “Preclinical evaluation of 3D185, a novel potent inhibitor of FGFR1/2/3 and CSF-1R, in FGFR-dependent and macrophage-dominant cancer models” (Journal of Experimental & Clinical Cancer Research : CR, 2019).

Tests used:
Test in all cases: Eurofins kinase panel
Type in all cases: biochemical
Conditions in all cases: read-out: Inhibition rate (%)
Tie2(Y897S)(h) = target: T1, Tie2(Y897S)(h) (Homo sapiens, UniProt Q02763, Y897S)
T1 construct: purchased Eurofins (KinaseProfiler)

PKAcβ(h) = target: T2, PKAcβ(h) (Homo sapiens, UniProt P22694)
T2 construct: purchased Eurofins (KinaseProfiler)

PIP5K1γ(h) = target: T3, PIP5K1γ(h) (Homo sapiens, UniProt O60331)
T3 construct: purchased Eurofins (KinaseProfiler)

PI3KC2α(h) = target: T4, PI3KC2α(h) (Homo sapiens, UniProt O00443)
T4 construct: purchased Eurofins (KinaseProfiler)

SAPK2a(h) = target: T5, SAPK2a(h) (Homo sapiens, UniProt Q16539)
T5 construct: purchased Eurofins (KinaseProfiler)

PEK(h) = target: T6, PEK(h) (Homo sapiens, UniProt Q9NZJ5)
T6 construct: purchased Eurofins (KinaseProfiler)
T6 sequence (Q9NZJ5 30-1116): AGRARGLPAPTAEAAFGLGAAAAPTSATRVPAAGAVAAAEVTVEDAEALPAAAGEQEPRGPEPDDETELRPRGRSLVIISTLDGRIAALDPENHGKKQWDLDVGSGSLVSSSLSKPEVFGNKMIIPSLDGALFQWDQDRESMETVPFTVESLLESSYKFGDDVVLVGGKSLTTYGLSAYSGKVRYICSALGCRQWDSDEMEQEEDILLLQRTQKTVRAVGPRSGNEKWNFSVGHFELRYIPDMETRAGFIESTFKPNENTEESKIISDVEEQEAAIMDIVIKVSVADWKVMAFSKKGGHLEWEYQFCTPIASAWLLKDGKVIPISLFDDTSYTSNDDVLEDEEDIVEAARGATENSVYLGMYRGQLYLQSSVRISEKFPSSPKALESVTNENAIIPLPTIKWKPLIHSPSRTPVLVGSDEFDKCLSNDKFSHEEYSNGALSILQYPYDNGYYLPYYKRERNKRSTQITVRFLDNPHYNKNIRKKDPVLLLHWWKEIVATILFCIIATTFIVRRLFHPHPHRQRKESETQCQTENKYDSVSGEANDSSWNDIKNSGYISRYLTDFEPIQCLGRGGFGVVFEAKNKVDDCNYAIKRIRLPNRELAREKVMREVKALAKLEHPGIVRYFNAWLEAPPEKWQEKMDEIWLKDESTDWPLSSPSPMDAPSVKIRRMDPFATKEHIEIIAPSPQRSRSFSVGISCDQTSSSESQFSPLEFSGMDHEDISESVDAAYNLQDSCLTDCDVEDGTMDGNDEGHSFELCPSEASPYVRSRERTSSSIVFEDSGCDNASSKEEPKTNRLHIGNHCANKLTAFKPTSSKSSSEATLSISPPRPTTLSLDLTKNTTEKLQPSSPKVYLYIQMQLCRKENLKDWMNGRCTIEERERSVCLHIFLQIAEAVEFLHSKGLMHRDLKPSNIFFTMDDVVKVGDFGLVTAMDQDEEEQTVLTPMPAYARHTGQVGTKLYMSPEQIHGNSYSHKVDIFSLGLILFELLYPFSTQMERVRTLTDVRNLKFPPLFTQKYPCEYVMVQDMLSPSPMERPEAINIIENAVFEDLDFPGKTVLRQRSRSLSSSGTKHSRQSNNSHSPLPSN

RIPK1(h) = target: T7, RIPK1(h) (Homo sapiens, UniProt Q13546)
T7 construct: purchased Eurofins (KinaseProfiler)
T7 sequence (Q13546 1-671): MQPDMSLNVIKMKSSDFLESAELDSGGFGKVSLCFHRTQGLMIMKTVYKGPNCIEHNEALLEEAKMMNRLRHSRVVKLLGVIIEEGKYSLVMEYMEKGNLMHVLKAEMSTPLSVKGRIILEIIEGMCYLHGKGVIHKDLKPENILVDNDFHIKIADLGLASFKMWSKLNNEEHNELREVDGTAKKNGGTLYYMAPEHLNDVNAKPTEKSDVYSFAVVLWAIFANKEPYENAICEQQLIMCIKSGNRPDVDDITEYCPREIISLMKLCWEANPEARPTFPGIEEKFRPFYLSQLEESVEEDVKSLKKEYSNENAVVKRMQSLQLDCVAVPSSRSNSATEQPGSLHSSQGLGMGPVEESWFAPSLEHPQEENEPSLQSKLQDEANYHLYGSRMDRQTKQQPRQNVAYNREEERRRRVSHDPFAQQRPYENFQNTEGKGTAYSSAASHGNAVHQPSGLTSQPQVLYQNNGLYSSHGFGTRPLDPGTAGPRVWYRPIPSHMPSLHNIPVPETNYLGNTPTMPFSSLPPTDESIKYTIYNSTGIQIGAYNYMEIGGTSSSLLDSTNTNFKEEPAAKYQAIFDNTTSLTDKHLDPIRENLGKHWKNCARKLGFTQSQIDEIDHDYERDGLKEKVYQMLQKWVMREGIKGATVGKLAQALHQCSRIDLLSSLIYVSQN

PAK2(h) = target: T8, PAK2(h) (Homo sapiens, UniProt Q13177)
T8 construct: purchased Eurofins (KinaseProfiler)

DAPK2(h) = target: T9, DAPK2(h) (Homo sapiens, UniProt Q9UIK4)
T9 construct: purchased Eurofins (KinaseProfiler)

ErbB2(h) = target: T10, ErbB2(h) (Homo sapiens, UniProt P04626)
T10 construct: purchased Eurofins (KinaseProfiler)

IGF-1R(h) = target: T11, IGF-1R(h) (Homo sapiens, UniProt P08069)
T11 construct: purchased Eurofins (KinaseProfiler)

T10 sequence (P04626 23-1255): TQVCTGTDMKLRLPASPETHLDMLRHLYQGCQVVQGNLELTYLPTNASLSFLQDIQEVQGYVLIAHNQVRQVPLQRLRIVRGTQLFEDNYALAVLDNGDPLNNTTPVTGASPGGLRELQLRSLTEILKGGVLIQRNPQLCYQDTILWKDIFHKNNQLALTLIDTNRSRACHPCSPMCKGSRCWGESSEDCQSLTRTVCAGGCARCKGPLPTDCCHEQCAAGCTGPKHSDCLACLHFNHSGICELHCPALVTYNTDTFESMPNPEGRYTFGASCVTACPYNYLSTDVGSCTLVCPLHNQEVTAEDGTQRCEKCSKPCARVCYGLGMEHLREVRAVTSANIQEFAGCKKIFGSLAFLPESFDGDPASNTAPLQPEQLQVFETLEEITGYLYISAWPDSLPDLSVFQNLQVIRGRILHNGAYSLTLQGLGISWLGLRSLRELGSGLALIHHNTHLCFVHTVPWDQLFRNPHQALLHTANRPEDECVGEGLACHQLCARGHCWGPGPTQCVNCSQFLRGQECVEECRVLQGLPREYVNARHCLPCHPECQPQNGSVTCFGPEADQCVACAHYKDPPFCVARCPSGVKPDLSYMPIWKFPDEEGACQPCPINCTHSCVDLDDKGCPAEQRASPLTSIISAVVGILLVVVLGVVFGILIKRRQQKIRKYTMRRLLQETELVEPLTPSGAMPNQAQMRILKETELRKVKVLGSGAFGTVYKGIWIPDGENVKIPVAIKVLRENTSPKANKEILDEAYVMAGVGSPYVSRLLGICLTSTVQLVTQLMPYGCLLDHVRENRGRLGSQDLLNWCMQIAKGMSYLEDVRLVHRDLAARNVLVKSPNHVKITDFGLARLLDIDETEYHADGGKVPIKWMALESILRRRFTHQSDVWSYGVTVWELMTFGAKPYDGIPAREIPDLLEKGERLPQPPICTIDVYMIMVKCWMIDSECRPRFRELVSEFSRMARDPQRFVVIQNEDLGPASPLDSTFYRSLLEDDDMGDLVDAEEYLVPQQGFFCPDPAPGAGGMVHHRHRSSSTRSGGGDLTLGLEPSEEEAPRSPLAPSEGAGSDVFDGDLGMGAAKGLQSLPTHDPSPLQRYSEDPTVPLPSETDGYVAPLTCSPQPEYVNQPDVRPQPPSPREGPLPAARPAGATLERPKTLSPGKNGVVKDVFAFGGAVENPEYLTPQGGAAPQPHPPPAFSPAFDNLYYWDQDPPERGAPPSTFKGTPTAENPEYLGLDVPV
T1 sequence (Q02763 23-1124 Y897S): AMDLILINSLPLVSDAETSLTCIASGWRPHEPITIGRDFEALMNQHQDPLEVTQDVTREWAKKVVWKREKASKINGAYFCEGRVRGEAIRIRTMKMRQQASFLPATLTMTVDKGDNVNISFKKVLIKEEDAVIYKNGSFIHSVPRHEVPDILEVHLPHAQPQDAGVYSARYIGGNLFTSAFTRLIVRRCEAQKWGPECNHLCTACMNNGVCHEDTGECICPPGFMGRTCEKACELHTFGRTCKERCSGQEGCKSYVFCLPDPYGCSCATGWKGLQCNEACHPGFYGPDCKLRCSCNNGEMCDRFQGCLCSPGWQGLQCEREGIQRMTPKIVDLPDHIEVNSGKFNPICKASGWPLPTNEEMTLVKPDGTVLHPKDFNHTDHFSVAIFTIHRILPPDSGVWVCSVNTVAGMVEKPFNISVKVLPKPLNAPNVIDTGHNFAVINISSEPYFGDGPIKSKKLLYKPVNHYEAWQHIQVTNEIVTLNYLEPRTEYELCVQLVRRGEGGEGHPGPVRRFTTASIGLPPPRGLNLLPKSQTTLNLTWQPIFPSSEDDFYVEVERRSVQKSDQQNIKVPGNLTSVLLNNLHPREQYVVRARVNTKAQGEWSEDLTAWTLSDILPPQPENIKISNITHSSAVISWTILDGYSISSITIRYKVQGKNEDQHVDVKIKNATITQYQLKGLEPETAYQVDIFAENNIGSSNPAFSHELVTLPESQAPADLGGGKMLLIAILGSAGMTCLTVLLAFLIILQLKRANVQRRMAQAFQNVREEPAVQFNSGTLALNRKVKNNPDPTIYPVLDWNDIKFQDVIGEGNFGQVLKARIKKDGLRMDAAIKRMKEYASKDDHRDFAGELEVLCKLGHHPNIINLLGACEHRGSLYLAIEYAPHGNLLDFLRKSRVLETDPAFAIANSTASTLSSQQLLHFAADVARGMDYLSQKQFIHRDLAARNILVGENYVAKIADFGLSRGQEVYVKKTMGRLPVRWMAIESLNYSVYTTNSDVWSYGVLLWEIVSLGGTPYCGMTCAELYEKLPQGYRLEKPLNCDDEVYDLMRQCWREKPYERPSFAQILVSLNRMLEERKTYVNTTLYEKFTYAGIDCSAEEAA
T4 sequence (O00443 whole entry): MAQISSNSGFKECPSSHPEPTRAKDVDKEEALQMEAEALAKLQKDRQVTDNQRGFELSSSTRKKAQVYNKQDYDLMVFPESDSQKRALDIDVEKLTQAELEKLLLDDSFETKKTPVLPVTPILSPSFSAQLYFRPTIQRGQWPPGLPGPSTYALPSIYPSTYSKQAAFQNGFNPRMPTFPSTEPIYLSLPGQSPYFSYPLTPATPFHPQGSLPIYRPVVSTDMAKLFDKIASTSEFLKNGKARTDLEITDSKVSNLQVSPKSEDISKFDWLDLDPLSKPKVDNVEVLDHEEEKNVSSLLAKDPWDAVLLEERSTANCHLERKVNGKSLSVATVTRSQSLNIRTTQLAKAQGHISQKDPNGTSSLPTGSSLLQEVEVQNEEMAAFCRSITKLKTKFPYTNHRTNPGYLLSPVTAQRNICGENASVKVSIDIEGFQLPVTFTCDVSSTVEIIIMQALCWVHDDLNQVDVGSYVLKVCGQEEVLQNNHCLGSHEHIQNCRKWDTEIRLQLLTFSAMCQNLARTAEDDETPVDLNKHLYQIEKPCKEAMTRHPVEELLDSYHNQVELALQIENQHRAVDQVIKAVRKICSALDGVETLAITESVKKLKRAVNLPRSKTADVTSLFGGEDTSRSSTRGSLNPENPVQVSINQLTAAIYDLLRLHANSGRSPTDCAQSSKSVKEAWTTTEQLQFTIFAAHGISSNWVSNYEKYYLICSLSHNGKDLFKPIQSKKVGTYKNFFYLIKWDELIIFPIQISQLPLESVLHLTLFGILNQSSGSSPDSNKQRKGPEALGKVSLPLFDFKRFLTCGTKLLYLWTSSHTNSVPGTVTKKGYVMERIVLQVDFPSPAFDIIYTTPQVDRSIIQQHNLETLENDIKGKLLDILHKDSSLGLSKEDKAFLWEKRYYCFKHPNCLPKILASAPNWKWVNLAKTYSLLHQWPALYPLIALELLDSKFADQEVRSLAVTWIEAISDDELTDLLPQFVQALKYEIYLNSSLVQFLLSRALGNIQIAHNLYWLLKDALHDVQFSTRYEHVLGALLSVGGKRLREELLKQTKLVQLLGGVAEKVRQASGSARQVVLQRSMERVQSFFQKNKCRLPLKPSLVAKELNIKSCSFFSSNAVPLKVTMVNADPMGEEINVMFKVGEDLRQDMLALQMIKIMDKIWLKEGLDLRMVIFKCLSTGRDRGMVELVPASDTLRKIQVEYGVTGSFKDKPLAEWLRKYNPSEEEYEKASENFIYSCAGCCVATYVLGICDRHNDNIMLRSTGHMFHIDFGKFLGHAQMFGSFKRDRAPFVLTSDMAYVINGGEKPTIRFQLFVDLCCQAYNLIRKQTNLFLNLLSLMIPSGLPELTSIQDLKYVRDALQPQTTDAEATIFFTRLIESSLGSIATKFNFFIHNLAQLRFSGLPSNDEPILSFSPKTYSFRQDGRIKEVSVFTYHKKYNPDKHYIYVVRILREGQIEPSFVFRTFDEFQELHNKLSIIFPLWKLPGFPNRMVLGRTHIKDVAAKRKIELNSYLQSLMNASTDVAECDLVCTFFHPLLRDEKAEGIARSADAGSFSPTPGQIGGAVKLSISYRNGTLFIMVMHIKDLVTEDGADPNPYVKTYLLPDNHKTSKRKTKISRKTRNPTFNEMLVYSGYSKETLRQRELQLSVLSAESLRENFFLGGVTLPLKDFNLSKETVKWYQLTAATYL
T9 sequence (Q9UIK4 whole entry): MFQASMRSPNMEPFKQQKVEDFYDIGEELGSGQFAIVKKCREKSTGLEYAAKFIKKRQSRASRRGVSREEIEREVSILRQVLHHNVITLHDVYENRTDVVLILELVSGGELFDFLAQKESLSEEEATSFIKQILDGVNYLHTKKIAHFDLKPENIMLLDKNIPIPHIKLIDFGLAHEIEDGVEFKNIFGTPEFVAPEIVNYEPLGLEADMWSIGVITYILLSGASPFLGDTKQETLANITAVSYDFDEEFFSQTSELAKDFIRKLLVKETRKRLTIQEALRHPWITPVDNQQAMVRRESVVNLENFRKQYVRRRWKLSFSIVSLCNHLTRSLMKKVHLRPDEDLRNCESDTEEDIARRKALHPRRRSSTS
T5 sequence (Q16539 whole entry): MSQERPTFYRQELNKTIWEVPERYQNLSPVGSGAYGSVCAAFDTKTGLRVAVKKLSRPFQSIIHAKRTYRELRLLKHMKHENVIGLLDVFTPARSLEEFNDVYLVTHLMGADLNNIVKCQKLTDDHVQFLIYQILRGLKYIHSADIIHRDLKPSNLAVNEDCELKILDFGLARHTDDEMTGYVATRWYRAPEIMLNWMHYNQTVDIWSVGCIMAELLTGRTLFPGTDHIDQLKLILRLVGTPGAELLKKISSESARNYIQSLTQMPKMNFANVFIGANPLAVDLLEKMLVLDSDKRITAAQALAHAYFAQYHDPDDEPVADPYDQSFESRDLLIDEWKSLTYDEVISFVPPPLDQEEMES

Compound `COc1cc(OC)c(Cl)c(-c2ccc3c(NC(=O)c4ccc(N5CCNC(C)(C)C5)cc4)n[nH]c3n2)c1Cl` [3D185] has an inhibition at 0.01 µM (Tie2(Y897S)(h); 10 nM) of 14%, an inhibition at 0.1 µM (Tie2(Y897S)(h); 100 nM) of 39% and an inhibition at 1 µM (Tie2(Y897S)(h); 1000 nM) of 88%. The inhibition at 0.01 µM (PKAcβ(h); 10 nM) was -6%, the inhibition at 0.1 µM (PKAcβ(h); 100 nM) was -11% and the inhibition at 1 µM (PKAcβ(h); 1000 nM) was -11%. The inhibition at 0.01 µM (PIP5K1γ(h); 10 nM) was 6%, the inhibition at 0.1 µM (PIP5K1γ(h); 100 nM) was 6% and the inhibition at 1 µM (PIP5K1γ(h); 1000 nM) was 10%. For the same compound, the inhibition at 0.01 µM (PI3KC2α(h); 10 nM) was -5%, the inhibition at 0.1 µM (PI3KC2α(h); 100 nM) was 1% and the inhibition at 1 µM (PI3KC2α(h); 1000 nM) was 1%. For the same compound, the inhibition at 0.01 µM (SAPK2a(h); 10 nM) was -7%, the inhibition at 0.1 µM (SAPK2a(h); 100 nM) was -2% and the inhibition at 1 µM (SAPK2a(h); 1000 nM) was -4%. It also gave an inhibition at 0.01 µM (PEK(h); 10 nM) of -7%, an inhibition at 0.1 µM (PEK(h); 100 nM) of 6% and an inhibition at 1 µM (PEK(h); 1000 nM) of 55%. For the same compound, the inhibition at 0.01 µM (RIPK1(h); 10 nM) was 4%, the inhibition at 0.1 µM (RIPK1(h); 100 nM) was 86% and the inhibition at 1 µM (RIPK1(h); 1000 nM) was 99%. For the same compound, the inhibition at 0.01 µM (PAK2(h); 10 nM) was 5%, the inhibition at 0.1 µM (PAK2(h); 100 nM) was -5% and the inhibition at 1 µM (PAK2(h); 1000 nM) was -5%. The inhibition at 0.01 µM (DAPK2(h); 10 nM) was 1%, the inhibition at 0.1 µM (DAPK2(h); 100 nM) was -8% and the inhibition at 1 µM (DAPK2(h); 1000 nM) was 2%. It also gave an inhibition at 0.01 µM (ErbB2(h); 10 nM) of -7%, an inhibition at 0.1 µM (ErbB2(h); 100 nM) of -11% and an inhibition at 1 µM (ErbB2(h); 1000 nM) of -11%. For the same compound, the inhibition at 0.01 µM (IGF-1R(h); 10 nM) was -5%, the inhibition at 0.1 µM (IGF-1R(h); 100 nM) was 54% and the inhibition at 1 µM (IGF-1R(h); 1000 nM) was 88%.
